From paper PMC3481155, “AhR activation underlies the CYP1A autoinduction by A-998679 in rats” (Frontiers in Genetics, 2012)

Assays:
CYP2D6 = biological target: T1, CYP2D6 (Homo sapiens, UniProt P10635); assay: CYP inhibition evaluation in human liver microsomes, CYP2D6 (dextromethorphan); assay type: in vitro ADME; conditions: probe substrate dextromethorphan
T1 construct: from tissue; host or cells: human liver microsomes
Procedure: Incubations were performed in human liver microsomes using probe substrate concentrations similar to their corresponding Km values. Enzyme activity was evaluated in the presence of various concentrations of A-998679. The incubations consisted of the test article at varying concentrations (0–30 μM), probe substrate (concentration ~Km, see Table A2), human liver microsomal protein and 1 mM NADPH in 50 mM phosphate buffer at pH 7.4. Relative quantitation of the metabolites was obtained by LC-MS/MS using an ABSciex (Foster City, CA) API3000 or API4000 Qtrap hybrid linear ion trap mass spectrometer equipped with a TurboIonspray source using either PerkinElmer series 200 pumps or Agilent 1100 series pump with a Leap autosampler. Analytes were separated using a Phenomenex Prodigy ODS(3) 5 μm, 50 × 2.0 mm column at 50°C, eluted and detected under the specific conditions listed in Tables A3, A4, and A5. The analyte to internal standard peak area ratios were determined using Analyst 1.4 software (Applied Biosytems, Carlsbad, CA). The peak area ratios observed in the presence of test article were compared to the vehicle control in order to determine percent activity. To determine the IC50, the data were plotted as Log [dose] μM vs. % inhibition, and analyzed with a sigmoidal dose-response (variable slope) fitting equation. […]

AhR = biological target: T2, AhR (Homo sapiens, UniProt P35869); assay: AhR nuclear translocation assay in HepG2 cells; assay type: cell-based; conditions: for AhR nuclear staining (% positive cells) 2 h: vehicle 15.6; for AhR nuclear staining (% positive cells) 24 h: vehicle 3.4
T2 construct: endogenous in cells; host or cells: HepG2
T2 sequence (P35869 11-848): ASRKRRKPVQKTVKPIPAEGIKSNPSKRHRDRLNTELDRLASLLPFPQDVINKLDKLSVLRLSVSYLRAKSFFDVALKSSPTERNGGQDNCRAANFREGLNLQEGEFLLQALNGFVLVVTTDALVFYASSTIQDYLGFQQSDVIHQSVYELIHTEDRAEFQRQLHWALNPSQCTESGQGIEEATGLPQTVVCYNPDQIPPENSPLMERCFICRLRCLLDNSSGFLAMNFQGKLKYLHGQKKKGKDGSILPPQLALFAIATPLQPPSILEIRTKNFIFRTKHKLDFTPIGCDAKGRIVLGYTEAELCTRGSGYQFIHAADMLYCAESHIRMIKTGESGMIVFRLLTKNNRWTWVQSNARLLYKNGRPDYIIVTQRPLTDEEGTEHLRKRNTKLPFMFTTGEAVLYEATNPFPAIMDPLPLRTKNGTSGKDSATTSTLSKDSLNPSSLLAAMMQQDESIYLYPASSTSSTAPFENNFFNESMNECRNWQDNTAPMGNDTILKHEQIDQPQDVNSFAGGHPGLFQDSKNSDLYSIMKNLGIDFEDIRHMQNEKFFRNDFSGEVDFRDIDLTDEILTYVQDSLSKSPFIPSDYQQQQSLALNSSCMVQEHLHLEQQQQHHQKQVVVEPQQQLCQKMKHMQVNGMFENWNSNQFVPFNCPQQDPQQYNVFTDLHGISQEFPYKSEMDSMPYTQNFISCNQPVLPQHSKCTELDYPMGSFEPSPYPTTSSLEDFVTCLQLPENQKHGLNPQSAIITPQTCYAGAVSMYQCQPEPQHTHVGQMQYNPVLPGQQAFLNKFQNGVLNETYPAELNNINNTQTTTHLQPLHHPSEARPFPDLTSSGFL
Procedure: HepG2 cells were plated in Lab-Tek II Chamber slides (Nalgene, Rochester, NY) at a seeding density of 50,000 cells/well. The cells were allowed to attach overnight and were treated for 2 h or 24 h with 10 or 40 μM A-998679, 2 μM 3-methylchloranthrene (3-MC) as a positive control, or 0.1% (v/v) DMSO vehicle. The cells were fixed in fresh 3% paraformaldehyde solution in PBS followed by a PBS wash, and were then permeabilized for 5 min using 0.2% Triton X-100 in PBS followed by another PBS wash. The cells were then incubated with blocking buffer consisting of 1% BSA/PBS solutions and immediately incubated with a 1:50 dilution of rabbit polyclonal antibody to AhR (Abcam, Cambridge, MA catalog# 63636) for 1 h at 37°C. Cells were then washed with PBS, re-blocked for 10 min, and stained with an Alexa 546 donkey anti-rabbit secondary antibody (diluted 1:200; Invitrogen Life Technologies) for 45 min at 37°C. The cells were then washed with PBS, stained with 0.5 μM Hoescht solution for 15 min, and again washed with PBS. The chamber slides were sealed and examined under the microscope. Images were acquired with a SPOT RT SE digital camera (Diagnostic Instruments, Sterling Heights, MI) mounted on a Leica (Wetzlar, Germany) DMIRE inverted florescence microscope using a 20× objective. Image acquisition was done using Metamorph® software (Molecular Devices, Sunnyvale, CA) and percent translocation of the AhR probe was quantitated using MetaXpress (Molecular Devices). Twenty microscope fields were evaluated per well (~3000–6000 cells/well).

[1] = biological target: T3, aryl hydrocarbon receptor (AhR) (Homo sapiens, UniProt P35869); assay: AhR luciferase reporter assay in HepG2 cells; assay type: cell-based
T3 construct: endogenous in cells; host or cells: HepG2
T3 sequence (P35869 11-848): T2 sequence (P35869 11-848)
Procedure: HepG2 cells were transiently transfected overnight with the construct (1200 bp portion of the human CYP1A1 promoter region containing 2 copies of the functional consensus sequence for the DRE in luc2P luciferase vector (SwitchGear Genomics cat# 114555, Menlo Park, CA) using lipofectin (Invitrogen Life Technologies) at 500 ng construct per million cells. Following transfection, the cells were replated in a 96-well format and dosed for 24 h with 0.1% (v/v) DMSO vehicle, 3-MC at 0.05, 0.1, 0.5, 1, 5, 10 μM, and A-998679 at 1.5625, 3.125, 6.25, 12.5, 25, and 50 μM. Luminescence signal was generated using the Dual-Luciferase Reporter Assay System (Promega, Madison, WI) and detected with a Tecan Genios Pro reader (Männedorf, Switzerland).

T1 sequence (P10635 whole entry): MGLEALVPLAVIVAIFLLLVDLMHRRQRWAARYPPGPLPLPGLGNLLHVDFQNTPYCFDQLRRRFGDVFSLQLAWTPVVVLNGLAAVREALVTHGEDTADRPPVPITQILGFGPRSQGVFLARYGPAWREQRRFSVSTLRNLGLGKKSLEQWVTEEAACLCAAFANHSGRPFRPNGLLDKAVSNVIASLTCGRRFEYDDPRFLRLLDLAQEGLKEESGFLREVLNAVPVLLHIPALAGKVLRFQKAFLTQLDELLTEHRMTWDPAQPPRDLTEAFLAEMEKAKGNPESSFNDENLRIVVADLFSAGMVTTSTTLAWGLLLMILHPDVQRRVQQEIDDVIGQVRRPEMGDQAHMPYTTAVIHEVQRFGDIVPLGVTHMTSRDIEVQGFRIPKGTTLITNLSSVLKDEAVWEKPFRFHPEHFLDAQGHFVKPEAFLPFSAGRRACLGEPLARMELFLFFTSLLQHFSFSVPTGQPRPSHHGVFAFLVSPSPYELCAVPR

N#Cc1cccc(-c2noc(-c3cccnc3)n2)c1 [A-998679, 3-(5-pyridin-3-yl-1,2,4-oxadiazol-3-yl) benzonitrile]
IC50 (CYP2D6): > 30 µM | AhR nuclear staining (% positive cells) 2 h (AhR; 10 μM): 18.8 % positive cells | AhR nuclear staining (% positive cells) 24 h (AhR; 10 μM): 4.5 % positive cells | AhR nuclear staining (% positive cells) 2 h (AhR; 40 μM): 29.6 % positive cells | AhR nuclear staining (% positive cells) 24 h (AhR; 40 μM): 6.3 % positive cells | lowest level activating the DRE ([1]; gene reporter assay): ~ 6 μM | EC50 ([1]; luciferase reporter with human DRE construct, 24 h, read-out: EC50, activation of AhR signaling): 16.2 µM | maximal increase over vehicle ([1]; luciferase reporter, 24 h): 56 fold
